In patent publication US6576648B2, “Compound with growth hormone releasing properties” (Novo Nordisk A/S, priority 1999, dated 2003):
Non-standard residues stand in square brackets, D forms with d. Residues, ends and D or L forms follow the SMILES beside them.

Legend:
[1] = Oral bioavailability, pharmacokinetics in fasted Beagle dogs; type: in vivo; details: intravenous and oral administration in 5% glucose solution
Protocol: The pharmacokinetics of the compound can be investigated in fasted Beagle dogs.
Intravenous and oral administration of the test compound, in 5% glucose solution, was separated by a one weeks washout.
Blood samples were collected immediately before drug administration (time zero) and than 0.08, 0.25, 0.50, 0.75, 1.0, 1.5, 2.0, 3.0, 4.0, 5.0, and 6.0 hours after administration.
The plasma samples were stored frozen (<−18° C.) pending analysis.
An HPLC method with solid phase extraction and UV detection was used for the quantification of the compound in plasma.
The pharmacokinetic parameters for compounds were calculated by non-compartmental methods using the PC based pharmacokinetic software WinNonlin, version 1.1 (Scientific Consulting Inc., Apex, N.C., USA).

[2] = tested on: endogenous growth hormone release; assay: Release of endogenous growth hormone in vivo
[3] = tested on: Pancreatic enzyme mix: trypsin, chymotrypsin and elastase; assay: Metabolic stability in pancreatic enzyme mix (ESMS, SIM of molecular ion); details: chymotrypsin and elastase 0.025 mg/ml, 100 mM ammoniumbicarbonate pH 8.0, 37° C., 24 h, decrease in SIM signal
Protocol: (§1) The compound is dissolved at a concentration of 1 mg/ml in water. 25 ml of this solution is added to 175 ml of the respective enzyme-solution (resulting in an enzyme:substrate ratio (w/w) of approximately 1:5). The solution is left at 37° C. overnight. 10 ml of the various degradation solutions is analyzed against a corresponding zero-sample using flow injection electrospray mass spectrometry (ESMS) with selected ion monitoring of the molecular ion. If the signal has decreased more than 20% compared to the zero-sample, the remainder of the solution is analyzed by HPLC and mass spectrometry in order to identify the extent and site(s) of degradation precisely.
(§2) Enzymes (trypsin, chymotrypsin, elastase aminopeptidase M and carboxypeptidase Y and B) were all purchased from Boehringer Mannheim GmbH (Mannheim, Germany) […]
(§3) Quantification of the compound (before and after degradation) was done on the API III instrument using single ion monitoring of the molecular ion in question with flow injection of the analyte. […]
(§4) Identification of degradation products furthermore involved the use of plasma desorption mass spectrometry (PDMS) with sample application on nitrocellulose coated targets and standard instrumental settings. The accuracy of the hereby determined masses is generally better than 0.1%. […]

[4] = tested on: Carboxypeptidase mix: carboxypeptidase Y and B; assay: Metabolic stability in carboxypeptidase mix (ESMS, SIM of molecular ion); details: carboxypeptidase Y and B 0.025 mg/ml, 50 mM ammoniumacetate pH 4.5, 37° C., 24 h, decrease in SIM signal
Protocol: as §1, §2, §3, §4

Compound | oral availability [1] | ability to release endogenous growth hormone in vivo [2] | Stability in Pan. Enzyme mix [3] | Stability in Carboxypeptidase mix [4]
CN(C)N(C)C(=O)[C@@]1(Cc2ccccc2)CCCN(C(=O)[C@@H](Cc2c[nH]c3ccccc23)NC(=O)C(C)(C)N)C1 [Example 1, 2-Amino-N-[(1R)-2-[(3R)-3-benzyl-3-(N,N′,N′-trimethylhydrazinocarbonyl)piperidin-1-yl]-1-(1H-indol-3-ylmethyl)-2-oxoethyl]-2-methylpropionamide] | about 50% | possess the ability to release endogenous growth hormone in vivo |  | 
C[C@H](NC(=O)[C@@H](Cc1c[nH]c2ccccc12)NC(=O)[C@@H](N)Cc1c[nH]cn1)C(=O)N[C@@H](Cc1c[nH]c2ccccc12)C(=O)N[C@H](Cc1ccccc1)C(=O)N[C@@H](CCCCN)C(N)=O [GHRP-6] (H-H[dW]AW[dF]K-NH2) |  |  | − (Unstable (more than 20% decrease in SIM signal after 24 h in degradation solution)) | − (Unstable (more than 20% decrease in SIM signal after 24 h in degradation solution))
GHRP-2 |  |  | − (Unstable (more than 20% decrease in SIM signal after 24 h in degradation solution)) | − (Unstable (more than 20% decrease in SIM signal after 24 h in degradation solution))
